Experimental data reported in PMC5036617 (Toxicological Sciences, 2016).
Like-named read-outs stand apart in the source and are kept apart here.

Legend:
[1] = tested on: HepG2 cells; test: Mitochondrial stress test, OCR analysis (Seahorse XFe96); format: cell-based; conditions: for basal respiration / maximal respiration: glucose medium, 7.8–500 µM; for basal respiration / maximal respiration / ATP-linked OCR as a percentage of maximal respiration / proton leak as a percentage of maximal respiration / spare respiratory capacity as a percentage of maximal respiration: vs vehicle control
Protocol: HepG2 cells were collected by trypsinization and seeded on a collagen-coated XF 96-well cell culture microplate (25 000 cells/100 µl medium/well) and incubated overnight in glucose medium (37 °C, 5% CO2). All assays used ≤ 0.5% DMSO as a vehicle control. Cells were incubated for 1 h (37°C, 0% CO2) before culture medium was replaced by 175 µl of unbuffered Seahorse XF Base medium supplemented with glucose (25 mM), L-glutamine (2 mM), sodium pyruvate (1 mM), pre-warmed to 37 °C (pH 7.4). Prior to measurement of OCR, the Seahorse XFe96 instrument gently mixed the assay medium in each well for 10 min to enable the oxygen partial pressure to reach equilibrium. […] There were 9 OCR measurement cycles following compound injection and each measurement cycle consisted of a 3 min mix and 3 min measure. […] After stress test compound injections there were 3 measurement cycles before the injection of the next stress test compound. This enabled the calculation of basal respiration (OCR prior to oligomycin injection—non-mitochondrial OCR), proton leak (OCR after oligomycin injection—non-mitochondrial OCR), ATP-linked OCR (basal respiration—proton leak—non-mitochondrial OCR), maximal respiration (first injection after FCCP injection—non-mitochondrial OCR) and spare respiratory capacity (maximal respiration—basal respiration) (Figure 2).  FIG. 2 Representative control mitochondrial stress test trace. Mitochondrial stress test assays consisted of a series of compound injections into the cell culture microplate. […] Remaining injections consisted of oligomycin (ATP synthase inhibitor), FCCP (OXPHOS uncoupler), and rotenone/antimycin A (complex I and III inhibitors, respectively) with each followed by 3 measurement cycles. This series of manipulations enabled the calculation of parameters: basal, ATP-linked, maximum, and non-mitochondrial OCR, as well as proton leak. Each measurement cycle was a total of 6 min. Following completion of OCR assays, medium was removed from all wells and 20 µl of somatic cell ATP releasing agent was added to each well before shaking for 1 min and transfer of 10 µl of lysate to a 96-well plate and performance of a BCA assay according to the manufacturer’s instructions. Protein content per well was used to normalize OCR.

[2] = tested on: mitochondrial respiratory complex II; test: In situ respiratory complex assay in permeabilized cells, complex II; format: cell-based; conditions: uncoupled, permeabilized HepG2 cells, 10–250 µM
[3] = tested on: mitochondrial respiratory complex IV; test: In situ respiratory complex assay in permeabilized cells, complex IV; format: cell-based; conditions: uncoupled, permeabilized HepG2 cells, 10–250 µM
[4] = tested on: mitochondrial respiratory complex II; test: Complex II-linked respiration assay in permeabilized cells; format: cell-based; conditions: permeabilized HepG2 cells; for complex II activity: complex II-stimulated maximal respiration vs vehicle control, 10–250 µM
Protocol: (§1) Culture medium was replaced with MAS buffer containing constituents to stimulate oxygen consumption via complex I (as previously without FCCP), complex II (ADP; 4.6 mM, succinate; 20 mM, rotenone; 1 µM, BSA; 0.2% w/v, PMP; 1 nM), or complex III (ADP; 4.6 mM, duroquinol; 500 μM, rotenone; 1 μM, malonic acid; 40 μM, BSA; 0.2% w/v, PMP; 1 nM) dependent on the respiratory complex of interest. […] Changes in complex II activity were also assessed at lower compound concentrations; 2–30 μM (Supplementary Figure S1). Complex I, II, and III activity were defined by the change in complex I, II, or III-stimulated maximal respiration respectively compared with vehicle control.
(§2) Following completion of OCR assays, medium was removed from all wells and 20 µl of somatic cell ATP releasing agent was added to each well before shaking for 1 min and transfer of 10 µl of lysate to a 96-well plate and performance of a BCA assay according to the manufacturer’s instructions. Protein content per well was used to normalize OCR.

[5] = tested on: mitochondrial respiratory complex III; test: Complex III-linked respiration assay in permeabilized cells; format: cell-based; conditions: permeabilized HepG2 cells, complex III-stimulated maximal respiration, 10–250 µM
Protocol: as §1, §2

[6] = tested on: HepG2 cells; test: Assessment of superoxide level (mitoSOX red); format: cell-based; conditions: 2 h; for concentration significantly increasing cellular superoxide: HepG2 cells, glucose medium, 15–500 µM; for superoxide level in galactose media: acutely galactose-conditioned HepG2 cells, up to 500 µM
Protocol: HepG2 cells were collected by trypsinization and seeded on a 24-well plate (150 000 cells/500 µl/well) and incubated overnight in glucose medium (37°C, 5% CO2). […] Protein content per well was determined using a BCA assay (as described earlier) and was used to normalize superoxide levels.

[7] = cited from earlier work; for half-life: after flutamide administration, ref Kostrubsky et al., 2007; for Cmax: plasma, ref Schulz et al., 1988, read-out: maximum plasma concentration (Cmax)
[8] = tested on: bile salt export pump; set-up: method as in Kostrubsky et al., 2007; conditions: via bile salt export pump inhibition; ref Kostrubsky et al., 2007; read-out: IC50 inhibition of taurocholate efflux; cited from earlier work
[9] = tested on: androgen receptor; set-up: method as in Shet et al., 1997; conditions: metabolite compared with parent compound; ref Shet et al., 1997; cited from earlier work
[10] = ref Chu et al., 1998; Wysowski and Fourcroy, 1996; cited from earlier work

Row | SMILES | basal respiration [1] | maximal respiration [1] | ATP-linked OCR as a percentage of maximal respiration ([1]; up to 500 µM) | proton leak as a percentage of maximal respiration ([1]; up to 500 µM) | spare respiratory capacity as a percentage of maximal respiration ([1]; up to 500 µM) | complex II activity (response to succinate) [2] | complex IV activity [3] | complex II activity [4] | concentration inducing a significant decline in complex II activity ([4]; complex II-stimulated maximal respiration, 2–30 and 10–250 µM) [µM] | complex III activity [5] | concentration significantly increasing cellular superoxide [6] [µM] | superoxide level in galactose media [6] | half-life [7] [h] | Cmax ([7]; metabolite after single 250 mg dose of flutamide) [nM] | IC50 [8] [µM] | androgen receptor binding affinity [9] | OCR upon compound injection, mitochondrial stress test ([1]; up to 500 µM) | Cmax ([7]; single 250 mg dose of flutamide) [nM] | parent drug as share of detectable compound in the plasma following administration ([7]; ref Radwanski et al., 1989) [%] | cases of hospitalization or death (idiosyncratic DILI) in treated patients [10] [%]
1 | CC(C)(O)C(=O)Nc1ccc([N+](=O)[O-])c(C(F)(F)F)c1 [2-hydroxyflutamide] | significant decrease | significant decrease | significant decrease | significant increase | significant decrease | significantly reduced response | Neither compound appeared to have a significant impact | significant reduction | ≥ 10 | no significant inhibition | ≥ 30 | significant increase | 9.6 | 4400 | 110 | higher androgen receptor binding affinity than its parent compound |  |  |  | 
2 | CC(C)C(=O)Nc1ccc([N+](=O)[O-])c(C(F)(F)F)c1 [Flutamide] | significant decrease | significant decrease | significant decrease | significant increase | significant decrease | Only 2-hydroxyflutamide induced a significantly reduced response | Neither compound appeared to have a significant impact | only 2-hydroxyflutamide and not flutamide induced a significant reduction |  | no significant inhibition | ≥ 30 | significant increase | 7.8 |  | 75 |  | immediate concentration-dependent reduction in OCR | 72.2 | 2.5 | 0.03
